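These data come from cells grown in 96-well plates and exposed to compound for 48 hours at five concentrations. GI50 is the concentration that inhibits growth by half. TGI: total growth inhibition.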
Key:
Assay in all cases: NCI tumour cell line growth inhibition, 48 h
NCI-H460 lung = system: NCI-H460 lung
RPMI-8226 leukemia = system: RPMI-8226 leukemia
MALME-3M melanoma = system: MALME-3M melanoma
HS 578T breast = system: HS 578T breast
NCI-H226 lung = system: NCI-H226 lung
OVCAR-8 ovarian = system: OVCAR-8 ovarian
CCRF-CEM leukemia = system: CCRF-CEM leukemia
SF-268 CNS = system: SF-268 CNS
NCI-H23 lung = system: NCI-H23 lung
A549 NSCLC = system: A549 NSCLC

| Compound | GI50 (NCI-H460 lung) [µM] | TGI (NCI-H460 lung) [µM] | GI50 (RPMI-8226 leukemia) [µM] | TGI (RPMI-8226 leukemia) [µM] | GI50 (MALME-3M melanoma) [µM] | TGI (MALME-3M melanoma) [µM] | GI50 (HS 578T breast) [µM] | TGI (HS 578T breast) [µM] | GI50 (NCI-H226 lung) [µM] | TGI (NCI-H226 lung) [µM] | GI50 (OVCAR-8 ovarian) [µM] | TGI (OVCAR-8 ovarian) [µM] | GI50 (CCRF-CEM leukemia) [µM] | TGI (CCRF-CEM leukemia) [µM] | GI50 (SF-268 CNS) [µM] | TGI (SF-268 CNS) [µM] | GI50 (NCI-H23 lung) [µM] | TGI (NCI-H23 lung) [µM] | GI50 (A549 NSCLC) [µM] | TGI (A549 NSCLC) [µM] |
| --- | --- | --- | --- | --- | --- | --- | --- | --- | --- | --- | --- | --- | --- | --- | --- | --- | --- | --- | --- | --- |
| Cc1ccc(S(=O)(=O)N2CCc3ccc(O)c4c3C2Cc2ccc3c(c2-4)OCO3)cc1 (centres undefined) | 0.539 | 7.53 | 0.959 | 5.08 | 0.775 | 30.4 | 1.06 | > 50.6 | 4.71 | 34.3 | 1.41 | 20.7 | 0.847 | > 27.6 | 1.01 | 23.3 | 0.592 | 5.25 | 0.808 | 12.4 |
| C/C(=N/N=C(N)N)c1ccc(NC(=O)Nc2ccc(/C(C)=N/N=C(N)N)cc2)cc1 | 13.5 | 48.8 | 3.77 | 34.2 | 16.5 | 46.9 | 26.5 | > 66.6 | 25 | > 94.6 | 21.8 | > 78.8 | 21.7 | 97.8 | 17.2 | > 71.2 | 13.9 | 48 | 19.4 | 54.8 |
| Nc1ccc(Sc2c3ccccc3nc3ccccc23)cc1 | – | 49.5 | – | 17.4 | – | 36.2 | – | > 68.4 | – | 58.4 | – | 28.6 | – | 30.2 | – | 40.5 | – | 36.7 | – | > 100 |
| C/C(=N/Nc1nc(C)cc(=O)[nH]1)C(=O)O | – | > 100 | – | > 100 | – | > 100 | – | > 100 | – | > 100 | – | > 100 | – | > 100 | – | > 100 | – | > 100 | – | > 100 |
| FC(F)(F)c1cc(Nc2ccc3cc(OCCCN4CCOCC4)ccc3n2)ccc1Cl | 1.72 | 3.42 | 1.11 | 6.61 | 1.67 | 4.34 | 1.68 | 4.36 | 2.56 | 11.7 | 2.87 | 10 | 2.03 | 9.18 | 1.9 | 4.71 | 1.94 | 4.8 | 1.93 | 4.3 |
| COC1=CC(=O)c2nc(Cl)ccc2C1=O | 14 | 29.3 | 2.59 | 7.9 | 1.72 | 3.38 | 2.22 | 6.18 | 7.61 | 21.5 | 1.68 | 3.11 | 2.23 | > 100 | 1.65 | 3.19 | 1.59 | 3.33 | 12.8 | 26.1 |
| CC1(C)N=C(N)N=C(N)N1c1cccc(Br)c1 | 0.435 | > 100 | 6.81 | > 100 | 33.2 | > 100 | > 30.4 | > 100 | – | > 100 | 0.228 | > 100 | 2.24 | > 100 | 0.0541 | > 100 | 0.564 | > 100 | 0.469 | > 100 |
| Nc1ncnc2c1ccn2[C@@H]1O[C@H]([C@H](O)c2ccc(Cl)c(F)c2)[C@@H](O)[C@H]1O | > 100 | > 100 | > 100 | > 100 | > 100 | > 100 | > 100 | > 100 | 34.5 | > 100 | > 100 | > 100 | > 100 | > 100 | > 100 | > 100 | > 100 | > 100 | > 100 | > 100 |
